Source: publication PMC3430621, “HPLC–MS/MS Analysis of a Traditional Chinese Medical Formulation of Bu-Yang-Huan-Wu-Tang and Its Pharmacokinetics after Oral Administration to Rats” (PLoS ONE, 2012)
Like-named read-outs stand apart in the source and are kept apart here.

What was measured:
[1] = Pharmacokinetics in conscious freely moving rats after oral administration of BYHWT extract (HPLC-MS/MS of plasma); assay type: in vivo, Sprague-Dawley rats
Text: The protocol listed below has been reviewed and approved by the Institutional Animal Care and Use Committee (IACUC; approval number 1010409) by the Institutional Animal Experimentation Committee of the National Yang-Ming University. Male pathogen-free Sprague-Dawley rats (250±50 g body weight) were obtained from the Laboratory Animal Center of National Yang Ming University. The animals had free access to food (Laboratory rodent diet 5P14, PMI Feeds, Richmond, IN, USA) and water was allowed at all times. All animal experiments followed the National Yang-Ming University guidelines and procedures for the care of laboratory animals. […] Experimental rats were initially anesthetized with pentobarbital (50 mg/kg, i.p.), and polyethylene tubing was implanted in the right jugular vein for blood sampling. The tube crossed the subcutaneous tissue and was fixed at its exit from the dorsal neck region. The patency tubing was maintained by filling with heparinized saline (20 units/mL). After surgery, the rats were placed in experimental cages and allowed to recuperate for one day. The rats were kept fasted for 12 h and water were available ad libitum before the BYHWT administration. […] In our study, the dose of BYHWT (10 g/kg) was appropriate for oral administration in rats. […] The condensed blood collection in the absorption phase is to figure out the maximum concentration and the time when it reaches the maximum concentration. The time points in the elimination phase are not close. This strategy is commonly used in the pharmacokinetic studies but the total blood consumption should not be over 20% of body blood. In these experimental rats, the total blood sampling volume is within 20% during 12 h. Plasma was separated by centrifuging the blood sample at 6000 rpm for 10 min at 4°C. […] The samples were vortexed and centrifuged at 16,100×g for 10 min. In our micro-analysis, less than 200 μL is needed. Actually, the collected blood volume is around 120-150 μL for each time point. After centrifugation, the plasma samples (50 μL) were vortex-mixed with 100 μL of acetonitrile. The supernatants were collected and filtered. Around 20 μL aliquot of the supernatants was transferred into the vial for analysis by HPLC-MS/MS system. The acetonitrile but not the real sample was used in the needle pre-wash standard procedure [19]. The LC-MS/MS system consisted of an Agilent 1100 series LC with automatic liquid chromatographic sampler, injector, bi-pump and degasser; and Applied Biosystems/MDS Sciex API 3000 tandem quadrupole mass spectrometry equipped with electrospray ionization (ESI) interface using the following parameters: nebulizer gas (NEB):10, curtain gas (CUR): 7, collisionally activated dissociation gas (CAD): 12, ionspray voltage (IS): 5000 V, turbo ionspray temperature (TEM): 450°C. Nitrogen was used in all cases. The mass spectrometer was operated in the positive ion detection mode. […] The following linear gradient program was applied to the analyte with the mobile phase consisting of methanol (0.1% formic acid, solvent A) and NH4OAc (0.1% formic acid, solvent B): 0-1 min: 30-70% A; 1-2 min 70-90%; 2-8 min: 90-90%; 8-9 min: 90-30%, 9-18 min: 30-30%, v/v. […] The flow rate was maintained at […]. Pharmacokinetic parameters including maximum plasma concentration (Cmax), time to reach the maximum concentrations (Tmax), half-life (t1/2), area under concentration-time curve (AUC) and oral clearance (CL) were estimated by a non-compartmental analysis using the pharmacokinetic program, WinNonlin Standard Edition Version 1.1 (Scientific Consulting, Apex, NC, USA). All results were expressed as average mean ± standard deviation (S.D.). ANOVA was used to evaluate differences, and a value of P<0.05 was taken as statistically significant.

[2] = Stability of the analytes in rat plasma samples (freeze-thaw, short-term, long-term, autosampler); assay type: in vitro ADME; settings: n = 3; for Stability (%) Autosampler stability: autosampler 8°C 12 h; for Stability (%) Short-term stability: room temperature 6 h; for Stability (%) Freeze-thaw stability: three freeze-thaw cycles; for Stability (%) Long-term stability: −20°C 14 days
Description: Stability was also assessed using the low, medium and high concentrations of analytes. Freeze-thaw stability was assessed over three freeze-thaw cycles. Short-term stability was determined by placing the samples at room temperature for 6 h. Long-term stability was evaluated by analyzing samples kept at −20°C for 14 days. Autosampler stability was determined by maintaining the samples at the autosampler temperature (8°C) for 12 h. All stabilities were calculating as the ratio of average concentration and freshly prepared samples.

[3] = set-up: method as in PMID 17931809; settings: cited from earlier work
[4] = male, Sprague-Dawley, po, rat plasma, BYHWT extract 10 g/kg p.o., n = 6, read-out: Cmax
[5] = male, Sprague-Dawley, po, rat plasma, BYHWT extract 10 g/kg p.o., n = 6, read-out: Tmax (converted)
[6] = male, Sprague-Dawley, po, rat plasma, BYHWT extract 10 g/kg p.o., n = 6, read-out: t1/2
[7] = rat plasma, BYHWT extract 10 g/kg p.o.
[8] = male, Sprague-Dawley, rat, in vivo, po, 10 g/kg

Row | SMILES | Cmax [1, 4] [ng/mL] | Tmax [1, 5] [h] | half-life [1, 6] [h] | absorption phase in the plasma concentration-time curve [1, 7] | Stability (%) Autosampler stability ([2]; concentration 1 (µg/mL)) [%] | Stability (%) Short-term stability ([2]; concentration 1 (µg/mL)) [%] | Stability (%) Freeze-thaw stability ([2]; concentration 1 (µg/mL)) [%] | Stability (%) Long-term stability ([2]; concentration 1 (µg/mL)) [%] | Stability (%) Autosampler stability ([2]; concentration 10 (µg/mL)) [%] | Stability (%) Short-term stability ([2]; concentration 10 (µg/mL)) [%] | Stability (%) Freeze-thaw stability ([2]; concentration 10 (µg/mL)) [%] | Stability (%) Long-term stability ([2]; concentration 10 (µg/mL)) [%] | Stability (%) Autosampler stability ([2]; concentration 100 (µg/mL)) [%] | Stability (%) Short-term stability ([2]; concentration 100 (µg/mL)) [%] | Stability (%) Freeze-thaw stability ([2]; concentration 100 (µg/mL)) [%] | Stability (%) Long-term stability ([2]; concentration 100 (µg/mL)) [%] | other results
1 | COc1cc2c(c(OC)c1OC)-c1ccc(OC)c(=O)cc1[C@@H](NC(C)=O)CC2 [colchicine] |  |  |  |  |  |  |  |  |  |  |  |  |  |  |  |  | AUC ([3]; donor rats): 847.7 ± 141.0 µg·min/mL; AUC ([3]; recipient rats): 55.5 ± 29.2 µg·min/mL
2 | COc1ccc(-c2coc3cc(O[C@@H]4O[C@H](CO)[C@@H](O)[C@H](O)[C@H]4O)ccc3c2=O)cc1O [Calycosin-7-O-β-D-glucoside, calycosin-7-O-β-D-glucoside] | 18 ± 4.1 | 0.533 | 5.63 ± 2.2 | single and plateau absorption phase | −8.4±12 | 2.5±11 | 5.8±6.1 | 6.4±12 | 2.1±9.1 | 7.3±12 | 4.9±3.5 | 23±13 | 3.5±7.9 | −0.1±0.9 | 7.0±1.2 | 20±12 | 
3 | CC(=O)OC1C(O)COC(OC2CCC34CC35CCC3(C)C(C6(C)CCC(C(C)(C)O)O6)C(O)CC3(C)C5CC(OC3OC(CO)C(O)C(O)C3O)C4C2(C)C)C1OC(C)=O (stereo not shown) [Astragaloside I, astragaloside I] |  |  |  |  | −5.3±7.9 | −3.6±8.0 | 4.6±3.6 | −14±17 | 4.3±6.6 | −4.1±10 | 3.8±2.7 | −8.3±2.3 | −4.9±7.0 | −6.4±6.4 | −1.8±5.4 | −27±12 | Cl ([1]; male, Sprague-Dawley, rat, in vivo, po): 90.5 ± 14 mL/min/kg; Cmax [1, 8]: 55 ± 7.8 ng/mL; Tmax [1, 8]: 0.667 h; half-life [1, 8]: 2.77 ± 0.467 h; AUC ([1]; rat, in vivo, po, 10 g/kg): 277 ± 43.3 ng·h/mL

Now from value to compound, other results behind:

Row | Cmax [1, 4] [ng/mL] | Tmax [1, 5] [h] | half-life [1, 6] [h] | absorption phase in the plasma concentration-time curve [1, 7] | Stability (%) Autosampler stability ([2]; concentration 1 (µg/mL)) [%] | Stability (%) Short-term stability ([2]; concentration 1 (µg/mL)) [%] | Stability (%) Freeze-thaw stability ([2]; concentration 1 (µg/mL)) [%] | Stability (%) Long-term stability ([2]; concentration 1 (µg/mL)) [%] | Stability (%) Autosampler stability ([2]; concentration 10 (µg/mL)) [%] | Stability (%) Short-term stability ([2]; concentration 10 (µg/mL)) [%] | Stability (%) Freeze-thaw stability ([2]; concentration 10 (µg/mL)) [%] | Stability (%) Long-term stability ([2]; concentration 10 (µg/mL)) [%] | Stability (%) Autosampler stability ([2]; concentration 100 (µg/mL)) [%] | Stability (%) Short-term stability ([2]; concentration 100 (µg/mL)) [%] | Stability (%) Freeze-thaw stability ([2]; concentration 100 (µg/mL)) [%] | Stability (%) Long-term stability ([2]; concentration 100 (µg/mL)) [%] | SMILES | other results
4 | 7.8 ± 0.2 | 0.75 | 4.45 ± 0.02 | double-peak absorption phase | 2.0±10 | 14±11 | 8.7±5.9 | 6.7±10 | 13±7.2 | 11±10 | 2.7±2.2 | 5.0±14 | −1.6±10 | 12±7.5 | 6.5±1.4 | 23±12 | CCC/C=C1\OC(=O)C2=C1CCC=C2 [Ligustilide, ligustilide] | 
5 | 97 ± 33 | 0.583 | 1.55 ± 0.533 | single and plateau absorption phase |  |  |  |  | −3.3±7.3 | 7.7±10 | 7.3±4.6 | 21±15 | −1.6±8.2 | −1.8±9.4 | 2.1±1.8 | 10±7.3 | C[C@@]12C[C@@]3(O)O[C@@H](O1)[C@]1(COC(=O)c4ccccc4)[C@H]3C[C@@]12O[C@@H]1O[C@H](CO)[C@@H](O)[C@H](O)[C@H]1O [Paeoniflorin, paeoniflorin] | Stability (%) Autosampler stability ([2]; concentration 1000 (µg/mL)): 8.5±5.1%; Stability (%) Short-term stability ([2]; concentration 1000 (µg/mL)): 11±8.4%; Stability (%) Freeze-thaw stability ([2]; concentration 1000 (µg/mL)): 9.5±0.2%; Stability (%) Long-term stability ([2]; concentration 1000 (µg/mL)): 27±9.9%
